Data set [1] is described as follows: Partition coefficient (Log P), n-octanol / phosphate buffer. In kind it is physicochemical. To be noted: shake-flask, equal volume mixture of n-octanol and phosphate buffer (25 mM, pH = 7.4); mean ± SD. How it is done: [^99mTc]-(HYNIC-AF7P)(tricine)(TPPTS) was prepared in two steps. First, HYNIC-AF7P was synthesized (Fig 1) and reacted with Na^99mTcO4 in the presence of excess tricine and SnCl2 to form the intermediate [^99mTc]-(HYNIC-AF7P)(tricine)2, which was then allowed to react with TPPTS to form the ternary ligand complex [^99mTc](HYNIC-AF7P)(tricine)(TPPTS). […] The HPLC retention time was 9.2 min for [^99mTc](HYNIC-AF7P)(tricine)(TPPTS) and the specific activity of final product was 1200 mCi/μmol. The partition coefficient of [^99mTc]-(HYNIC-AF7P)(tricine)(TPPTS) was determined in an equal volume mixture of noctanoland phosphate buffer (25 mM, pH = 7.4). Log P value of [^99mTc]-(HYNIC-AF7P)(tricine)(TPPTS)was -2.39±0.06.

The nature of data set [2]: In vitro solution stability in saline (radio-HPLC). The conditions noted are these: 0.9% physiological saline, 37°C, 100 μL tracer in 400 μL total, mean ± SD. In kind it is physicochemical. How it is done:
(§1) HYNIC-AF7p solution (20 μL, 60 μg/mL in H2O), of tricine solution (100 μL, 100 mg/mL in 25 mM succinate buffer, pH 5.0), SnCl2 solution (10 μL, 3 mg/mL in 0.1 M HCl) and Na^99mTcO4 (100 μL, 370 MBq) in saline were added into a 5 mL Eppendorf tube. The reaction mixture was kept at room temperature for 10 min. To the reaction mixture above was added 100 μL of the TPPTS solution (50 mg/mL in 25 mM succinate buffer, pH 5.0). The vial containing the reaction mixture was sealed, cramped, and heated at 90°C for 30 min. After cooling to room temperature, sample was analyzed by radio-HPLC. The radio-HPLC method used a HP Hewlett Packard Series 1100 HPLC system equipped with a Radioflow Detector LB509 and a reversed-phase Zorbax SB-C18 column (4.6 mm × 250 mm, 5 μm). The flow rate was 1 mL/min. The gradient mobile phase started with 90% solvent A (0.1% TFA in water) and 10% solvent B (0.1% TFA in acetonitrile) to 30% solvent A and 70% solvent B at 24 min to 0% solvent A and 100% solvent B at 27 min, followed with 90% solvent A and 10% solvent B at 30 min. […]
(§2) 100 μL of [^99mTc]-(HYNIC-AF7P)(tricine)(TPPTS) was added to either 0.9% physiological saline or 1 mg/mL cysteine solution. […] After 1 h, 2 h, 3 h, 4 h, 5 h and 6 h incubation, the radiochemical purity for [^99mTc]-(HYNIC-AF7P)(tricine)(TPPTS) at each time point was detected by radio-HPLC as described above.

The nature of data set [3]: In vitro solution stability in the presence of excess cysteine (radio-HPLC). To be noted: 1 mg/mL cysteine, pH = 7.4, 37°C, mean ± SD. Type of data set: physicochemical. How it is done: as §1, §2
Data set [4] concerns MT1-MMP-positive MDA-MB-231 tumor. In words: SPECT imaging of MDA-MB-231 tumor-bearing mice. In kind it is in vivo. The conditions noted are these: mean ± SD; for tumor uptake (SPECT ROI), blocking: 200 μg unlabeled AF7P injected 30 min ahead of tracer; for tumor uptake (SPECT ROI), unblocked: i.v. The protocol: (§3) All animal experiments were approved by Jilin University Health Science Center Animal Care and Use Committee. Human breast carcinoma cell line MDA-MB-231 with high MT1-MMP expression and human lung adenocarcinomaepithelial cell line A549 with low MT1-MMP expression were cultured in DMEM medium containing 10% (v/v) fetal bovine serum (Invitrogen) supplemented with penicillin (100 μg/mL) and streptomycin (100 μg/mL) at 37°C with 5% CO2. MDA-MB-231 and A549 tumor models were established by subcutaneous injection of 5×10^6 cells into the upper right front flank of female athymic nude mice (Department of Experimental Animal, Peking University Health Science Center). Tumor growth was monitored by caliper measurements three times a week after the tumors are palpable. The mice were used for SPET/CT imaging when the tumor volume reached about 200 mm3 (about 14 days after tumor inoculations). The tumor volume was determined as the formula: V = a × (b^2)/2, where a and b are the length and width of each tumor in mm respectively. During the injection and image acquisition process, the mice were anesthetized with 2.5% isoflurane in oxygen delivered at a flow rate of 1.5 L/min.
(§4) The imaging study was performed using the female BALB/c nude mice bearing the MDA-MB-231 tumors and A549 tumors. Each tumor-bearing mouse was administered intravenously with [^99mTc]-(HYNIC-AF7P)(tricine)(TPPTS) (22.2 MBq/mice) in 0.1 mL saline. For blocking test, 200 μg free AF7P was intravenously injected into MDA-MB-231 tumor bearing mice 30 min before [^99mTc]-(HYNIC-AF7P)(tricine)(TPPTS) was injected. Animals were placed prone on a two-head γ-camera (SIEMENS, E. CAM) equipped with a parallel-hole, low-energy, and high-resolution collimator. Posterior images were acquired at 0.5, 2 and 4 hours post injection (p.i.). The acquisition count limits were set at 700k. After completion of imaging, animals were sacrificed by cervical dislocation.

In data set [5] the test system is A549 tumor (little MT1-MMP). In words: SPECT imaging of A549 tumor-bearing mice. Type of data set: in vivo. The conditions noted are these: i.v., A549 tumor bearing model, mean ± SD. The protocol: as §3, §4

The structures appear in SMILES notation. Square brackets hold non-standard residues; d marks the D form. Peptide text beside a SMILES is read from it. * marks the point of attachment. HYNIC = NNc1ccc(C(=O)*)cn1; AEEA = NCCOCCOCC(=O)O

Regarding `CC(C)C[C@H](NC(=O)[C@H](Cc1ccccc1)NC(=O)[C@@H](NC(=O)[C@H](CCCCN)NC(=O)[C@@H](NC(=O)[C@H](CC(N)=O)NC(=O)[C@H](Cc1c[nH]cn1)NC(=O)[C@H](CC(C)C)NC(=O)[C@H](Cc1c[nH]cn1)NC(=O)[C@H](CCCCN)NC(=O)[C@H](Cc1c[nH]c2ccccc12)NC(=O)[C@H](Cc1c[nH]cn1)NC(=O)c1ccc(NN)nc1)[C@@H](C)O)[C@@H](C)O)C(=O)NCCOCCOCC(=O)O` [[^99mTc]-(HYNIC-AF7P)(tricine)(TPPTS), metal not drawn] ({HYNIC}-HWKHLHNTKTFL[AEEA]-OH), the “Log P value (partition coefficient)” value in data set [1] is recorded as -2.39±0.06. Further, the “original form (radiochemical purity) in saline” value in data set [2] (after 6 hours incubation) was determined as 93.5 ± 2.27%; in data set [2] (at the beginning) it was 96.8 ± 1.12%. The “original form (radiochemical purity) in solution containing excess cysteine” value is reported as 94.2 ±1.72% in data set [3] (after 6 hours incubation) and 96.8 ± 1.52% in data set [3] (at the beginning). For the same molecule, the “tumor uptake (SPECT ROI), blocking” value was 1.15±0.05 %ID/g in data set [4] (0.5 h p.i.), 1.05±0.12 %ID/g in data set [4] (2 h p.i.) and 1.03±0.34 %ID/g in data set [4] (4 h p.i.). Besides, the results for the “tumor uptake (SPECT ROI), unblocked” value in data set [4] (0.5 h p.i.), in data set [4] (2 h p.i.) and in data set [4] (4 h p.i.) were 4.15±0.27 %ID/g, 2.58±0.21 %ID/g and 1.59±0.11 %ID/g, respectively. For the same molecule, the “tumor uptake (SPECT ROI), A549 tumor” value in data set [5] (0.5 h p.i.) is given as 1.35±0.11 %ID/g; in data set [5] (4 h p.i.), 1.01± 0.00 %ID/g; in data set [5] (time point not printed (between 0.5 h and 4 h)), 1.03±0.05 %ID/g.

The values above are taken from article PMC4593522, “Development of a Radiolabeled Peptide-Based Probe Targeting MT1-MMP for Breast Cancer Detection” (PLoS ONE, 2015).
